Tests used:
[1] = DPPH radical scavenging assay; conditions: 0.1 mg/mL; Trolox equivalents
Experimental: The DPPH assay was evaluated according to Aadil (2013) and Bonetti (2016). Fifty microliters of samples (cortisone, SCA and SCB) were added to […] of 0.06 mM of methanolic DPPH· radical solution. The reaction mixture was left to stand at room temperature in the dark for 15 min. The absorbance for the sample (Asample) was measured at 515 nm against methanol blank. A control was the absorbance of DPPH· solution.
Methanolic solutions with different Trolox concentrations (0.05 − 1 mM/L) were analyzed for calibration curve. The free radical scavenging capacity was expressed as micromolar of Trolox equivalents (TEs)/g of SCA and SCB compounds using calibration curve.

[2] = system: Salmonella typhimurium TA98; assay: Ames test (plate incorporation), strain TA98; type: cell-based
Experimental: Mutagenicity assay was performed following the plate incorporation method with the histidine-requiring Salmonella typhimurium mutant TA98 and TA100 strains. All strains (100 µl per plate of fresh overnight cultures) were checked with and without the addition of 0.5 mL of a 5% S9 exogenous metabolic activator (S9 mix). The lyophilized post-mitochondrial supernatant S9 mix (Aroclor 1254-induced, Sprague–Dawley male rat liver in 0.154 M KCl solution, Molecular Toxicology, Inc., Boone, NC, USA), commonly used for the activation of pro-mutagens to mutagenic metabolites, was stored at− 80 °C before use. The concentration tested for all the samples were 1, 5, 10, 50, 100 µL/plate of a stock solution 100 mg/mL.
A fully-grown culture of the appropriate tester strain (0.1 mL) was added to 2 mL Molten Top Agar (0.6% agar, 0.6% NaCl, 0.5 mM L-histidine/biotin solution) at 46 °C, together with 0.1 mL of each sample solution at different concentrations, and 0.5 mL S9 mix for assays with metabolic activation or 0.5 mL of phosphate buffer pH 7.4 to test without metabolic activation. The ingredients were thoroughly mixed and poured onto minimal glucose agar plates (1.5% agar in 2% Vogel–Bonner medium E with 5% glucose solution).
DMSO was used as a negative control (100 µl/plate). Positive controls were prepared as follows: 2-aminoanthracene (2 µg/plate) and 2-nitrofluorene (2 µg/plate) for TA98 with and without metabolic activator (S9 mix) respectively; 2-aminoanthracene (2 µg/plate) and sodium azide (2 µg/plate) for TA100, with and without metabolic activator (S9 mix) respectively. The plates were incubated at 37 °C for 72 h and then the his^+ revertants were checked and counted using a Colony Counter 560 Suntex (Antibioticos, Italy). A sample was considered mutagenic when the observed number of colonies was at least twofold over the spontaneous level of revertants. All determinations were made in triplicate. Relative standard deviations were computed using the statistical software […] 6.0 (StatSoft Italia srl).

[3] = system: p65 NF-κB nuclear translocation in HaCaT cells; assay: TNFα-induced p65 NF-κB nuclear translocation, immunofluorescence; type: cell-based; conditions: 10 μM pretreatment 24 h, then 10 ng/mL TNFα 1 h
Experimental: HaCaT cells were cultured with Dulbecco’s modified Eagle’s medium High Glucose (Lonza, Milan, Italy) supplemented with 10% FBS, 100 U/mL penicillin, 100 μg/mL streptomycin and 2 mM L-glutamine as previously described. Cells were maintained in a humidified incubator at 37 °C with 5% CO2 and incubated until the monolayer was 80% confluent. Medium was changed every 2 days.
HaCaT cells were pretreated with or without 10 μM of both SCA and SCB for 24 h. Stock solutions of the two compounds were prepared in DMSO immediately before use and diluted to the final concentration in the culture medium. In some sets of experiments, betamethasone-17-valerate (10 µg/mL) served as a positive control; dimethyl sulfoxide (DMSO) served as a solvent control. After the pretreatments, cells were stimulated with 10 ng/mL TNFα for 1 h to induce the NFκB signaling pathway. Then, media were replaced with fresh culture medium. Cells and supernatants were collected at different time points for each set of experiments as described below.
Briefly, HaCaT cells were seeded on coverslips at a density of 1 × 10^5 cell/mL and incubated with DMEM high glucose supplemented with FBS 10%. Then, HaCaT cells were treated as indicated above. At the end of the proinflammatory stimulus with TNFα, cells were fixed in 4% paraformaldehyde in PBS for 30 min at 4 °C as previously described. HaCaT cells were permeabilized for 5 min at RT with PBS containing 0.2% Triton X-100. After the blocking with 1% BSA in PBS at RT for 1 h, HaCaT cells were incubated with p65 NF-κB primary antibody (1:100, sc-372; Santa Cruz Biotechnology, Inc., Dallas, Texas, USA) in PBS containing 0.5% BSA at 4 °C overnight. After washing, coverslips were incubated with appropriate secondary antibody for 1 h at RT. Nuclei were stained with 1 μg/mL DAPI (Sigma- Aldrich, Italy) for 1 min. […] Fluorescence was examined using an Epifluorescence microscope (Nikon Eclipse E800; Nikon Corporation, Surrey, UK) equipped with a plan apochromat 100 × 0.5 − 1.3 oil immersion objective and a mercury lamp source.

[4] = TA98, + S9, 1 µL/plate of a stock solution 100 mg/mL
[5] = TA98, + S9, 5 µL/plate of a stock solution 100 mg/mL
[6] = TA98, + S9, 10 µL/plate of a stock solution 100 mg/mL
[7] = TA98, + S9, 50 µL/plate of a stock solution 100 mg/mL
[8] = TA98, + S9, 100 µL/plate of a stock solution 100 mg/mL
[9] = TA98, − S9, 1 µL/plate of a stock solution 100 mg/mL
[10] = TA98, − S9, 5 µL/plate of a stock solution 100 mg/mL
[11] = TA98, − S9, 10 µL/plate of a stock solution 100 mg/mL
[12] = TA98, − S9, 50 µL/plate of a stock solution 100 mg/mL
[13] = TA98, − S9, 100 µL/plate of a stock solution 100 mg/mL

Structure (SMILES): Cc1ccc(O)c2c1CCC1C3CC[C@](O)(C(=O)CO)[C@@]3(C)CC(=O)[C@@]21O (stereo partly drawn) [SCA, 1,9β,17,21‐tetrahydoxy‐4‐methyl‐19‐nor‐9β‐pregna‐1,3,5(10)‐trien‐11,20‐dione]
- DPPH radical scavenging activity (in words) [1]: high antioxidant property compared with the cortisone precursor
- genotoxic activity (Ames test) [2]: For none of the samples genotoxic activity emerged
- average number of revertant colonies [2, 4]: 43,7
- t/c (revertant colonies in treated plates/untreated plates) [2, 4]: 1.2
- average number of revertant colonies [2, 5]: 43,3
- t/c (revertant colonies in treated plates/untreated plates) [2, 5]: 1.2
- average number of revertant colonies [2, 6]: 41,3
- t/c (revertant colonies in treated plates/untreated plates) [2, 6]: 1.1
- average number of revertant colonies [2, 7]: 39,3
- t/c (revertant colonies in treated plates/untreated plates) [2, 7]: 1.1
- average number of revertant colonies [2, 8]: 41,3
- t/c (revertant colonies in treated plates/untreated plates) [2, 8]: 1.1
- average number of revertant colonies [2, 9]: 17,7
- t/c (revertant colonies in treated plates/untreated plates) [2, 9]: 0.9
- average number of revertant colonies [2, 10]: 23,7
- t/c (revertant colonies in treated plates/untreated plates) [2, 10]: 1.1
- average number of revertant colonies [2, 11]: 23,3
- t/c (revertant colonies in treated plates/untreated plates) [2, 11]: 1.1
- average number of revertant colonies [2, 12]: 25,3
- t/c (revertant colonies in treated plates/untreated plates) [2, 12]: 1.2
- average number of revertant colonies [2, 13]: 20,3
- t/c (revertant colonies in treated plates/untreated plates) [2, 13]: 1.0
- effect on TNFα-stimulated translocation of p65 to the nucleus [3]: barely affected

Structure (SMILES): Cc1ccc(O)c2c1CCC1C3CC[C@](O)([C@H](O)CO)[C@@]3(C)CC(=O)[C@@]21O (stereo partly drawn) [SCB, 1,9β,17,20β,21‐ pentahydoxy‐4‐methyl‐19‐nor‐9β‐pregna‐1,3,5(10)‐trien‐11‐one]
- DPPH radical scavenging activity (in words) [1]: high antioxidant property compared with the cortisone precursor
- genotoxic activity (Ames test) [2]: For none of the samples genotoxic activity emerged
- average number of revertant colonies [2, 4]: 34
- t/c (revertant colonies in treated plates/untreated plates) [2, 4]: 1.1
- average number of revertant colonies [2, 5]: 35
- t/c (revertant colonies in treated plates/untreated plates) [2, 5]: 1.1
- average number of revertant colonies [2, 6]: 35
- t/c (revertant colonies in treated plates/untreated plates) [2, 6]: 1.1
- average number of revertant colonies [2, 7]: 31
- t/c (revertant colonies in treated plates/untreated plates) [2, 7]: 1.0
- average number of revertant colonies [2, 8]: 30
- t/c (revertant colonies in treated plates/untreated plates) [2, 8]: 0.9
- average number of revertant colonies [2, 9]: 24
- t/c (revertant colonies in treated plates/untreated plates) [2, 9]: 1.0
- average number of revertant colonies [2, 10]: 23
- t/c (revertant colonies in treated plates/untreated plates) [2, 10]: 0.9
- average number of revertant colonies [2, 11]: 22
- t/c (revertant colonies in treated plates/untreated plates) [2, 11]: 0.9
- average number of revertant colonies [2, 12]: 21
- t/c (revertant colonies in treated plates/untreated plates) [2, 12]: 0.9
- average number of revertant colonies [2, 13]: 19
- t/c (revertant colonies in treated plates/untreated plates) [2, 13]: 0.8
- effect on TNFα-stimulated translocation of p65 to the nucleus [3]: showed the ability in counteracting the proinflammatory stimulus

Reference: PMC9685055, “Biological activity of new bioactive steroids deriving from biotransformation of cortisone” (Microbial Cell Factories, 2022)
